Measurements: PMC9453454, “Design, synthesis, and anticancer activity of three novel palbociclib derivatives” (Frontiers in Oncology, 2022)

Assays:
HepG2 cells = assay: MTT in vitro cytotoxicity, HepG2; assay type: cell-based, human; conditions: HepG2 human liver cancer cells, MTT, 48 h; read-out: IC50
Description: (§1) Human lung cancer cells (NCI-H460, NCI-H1299, and A549), human breast cancer cells (MDA-MB-231, MDA-MB-453, and MCF-7), human liver cancer cells (Huh-7 and HepG2), human colon cancer cells (coca-2, HT-29, and HCT116), human cervical cancer cells (HeLa), human normal lung cells (BEAS-2B), and human normal […] (MCF-10) were from the State Key Laboratory of Pharmaceutical Biotechnology, Nanjing University. NCI-H460 were cultured in 1640 medium containing 10% fetal bovine serum (FBS). MDA-MB-231 were cultured in L15 medium containing 10% FBS without CO2, and other cell lines were cultured in DMEM medium containing 10% FBS CO2 in the incubator.
(§2) MTT assay was used to identify 14 different cell lines (human lung cancer cells NCI-H460, NCI-H1299, and A549; human breast cancer cells MDA-MB-231, MDA-MB-453, and MCF-7; human liver cancer cells Huh-7 and HepG2; human colon cancer cells coca-2, HT-29, and HCT116; and human cervical cancer cells HeLa) and 2 kinds of normal cell lines (human normal lung epithelial cells BEAS-2B, human normal breast epithelial cells MCF10-A) for quantitative analysis ([15]). In addition, 10-HCPT and palbociclib were used as positive control.
(§3) Cells were harvested during the logarithmic growth phase and seeded into 96-well plates at a density of 2.0×10^3 cells/well. After being incubated for 24 h, the cells were treated with different concentrations of various culture programs for 48 h. Afterwards, 20 μl of MTT solution (5 mg/ml) was added to each well, and the cells were incubated in a 5% CO2 atmosphere at 37°C for another 4 h. Then, the supernatant was discarded, and the formazan crystals were dissolved in 150 μl DMSO. Subsequently, the absorbance was measured at 570 nm via a Tecan microplate reader. The concentration that caused 50% inhibition of cell viability (IC50) values was calculated by GraphPad Software. Triplicate experiments were performed in parallel for each concentration, and the results are shown as the mean ± SD. The inhibitory ratio was calculated using the following formula: inhibitory ratio (%) = [1−(mean absorbance of experiment group)/(mean absorbance of control group)] × 100.

MDA-MB-231 cells = assay: MTT in vitro cytotoxicity, MDA-MB-231; assay type: cell-based, human; conditions: MDA-MB-231 human breast cancer cells, MTT, 48 h; read-out: IC50
Description: as §1, §2, §3

HT-29 cells = assay: MTT in vitro cytotoxicity, HT-29; assay type: cell-based, human; conditions: HT-29 human colon cancer cells, MTT, 48 h; read-out: IC50
Description: as §1, §2, §3

MCF10-A cells = assay: MTT in vitro cytotoxicity, MCF10-A normal breast epithelial cells; assay type: cell-based, human; conditions: MCF-10A; MCF10-A human normal breast epithelial cells, MTT, 48 h; read-out: IC50
Description: as §1, §2, §3

A549 cells = assay: MTT in vitro cytotoxicity, A549; assay type: cell-based, human; conditions: A549 human lung cancer cells, MTT, 48 h; read-out: IC50
Description: as §1, §2, §3

NCI-H460 cells = assay: MTT in vitro cytotoxicity, NCI-H460; assay type: cell-based, human; conditions: NCI-H460 human lung cancer cells, MTT, 48 h; read-out: IC50
Description: as §1, §2, §3

Huh-7 cells = assay: MTT in vitro cytotoxicity, Huh-7; assay type: cell-based, human; conditions: Huh-7 human liver cancer cells, MTT, 48 h; read-out: IC50
Description: as §1, §2, §3

MCF-7 cells = assay: MTT in vitro cytotoxicity, MCF-7; assay type: cell-based, human; conditions: MCF7; MCF-7 human breast cancer cells, MTT, 48 h; read-out: IC50
Description: as §1, §2, §3

MDA-MB-453 cells = assay: MTT in vitro cytotoxicity, MDA-MB-453; assay type: cell-based, human; conditions: MDA-MB-453 human breast cancer cells, MTT, 48 h; read-out: IC50
Description: as §1, §2, §3

Hela cells = assay: MTT in vitro cytotoxicity, Hela; assay type: cell-based, human; conditions: Hela human cervical cancer cells, MTT, 48 h; read-out: IC50
Description: as §1, §2, §3

BEAS-2B cells = assay: MTT in vitro cytotoxicity, BEAS-2B normal lung epithelial cells; assay type: cell-based, human; conditions: BEAS-2B human normal lung epithelial cells, MTT, 48 h; read-out: IC50
Description: as §1, §2, §3

HCT116 cells = assay: MTT in vitro cytotoxicity, HCT116; assay type: cell-based, human; conditions: HCT-116; HCT116 human colon cancer cells, MTT, 48 h; read-out: IC50
Description: as §1, §2, §3

NCI-H1299 cells = assay: MTT in vitro cytotoxicity, NCI-H1299; assay type: cell-based, human; conditions: NCI-H1299 human lung cancer cells, MTT, 48 h; read-out: IC50
Description: as §1, §2, §3

Coca-2 cells = assay: MTT in vitro cytotoxicity, Coca-2; assay type: cell-based, human; conditions: Coca-2 human colon cancer cells, MTT, 48 h; read-out: IC50
Description: as §1, §2, §3

Structure (SMILES) | IC50 (HepG2 cells) [µM] | IC50 (MDA-MB-231 cells) [µM] | IC50 (HT-29 cells) [µM] | IC50 (MCF10-A cells) [µM] | IC50 (A549 cells) [µM] | IC50 (NCI-H460 cells) [µM] | IC50 (Huh-7 cells) [µM] | IC50 (MCF-7 cells) [µM] | IC50 (MDA-MB-453 cells) [µM] | IC50 (Hela cells) [µM] | IC50 (BEAS-2B cells) [µM] | IC50 (HCT116 cells) [µM] | melting point [°C] | IC50 (NCI-H1299 cells) [µM] | IC50 (Coca-2 cells) [µM]
CC[C@]1(O)C(=O)OCc2c1cc1n(c2=O)Cc2cc3cc(OC(=O)CCC(=O)N4CCN(c5ccc(Nc6ncc7c(C)c(C(C)=O)c(=O)n(C8CCCC8)c7n6)nc5)CC4)ccc3nc2-1 [HP-2, (R)-4-ethyl-4-hydroxy-3,14-dioxo-3,4,12,14-tetrahydro-1H-pyrano[3’,4’:6,7] indolizino[1,2-b]quinolin-9-yl4-(4-(6-((6-acetyl-8-cyclopentyl-5-methyl-7-oxo-7,8-dihydropyrido[2,3-d]pyrimidin-2-yl)amino)pyridin-3-yl)piperazin-1-yl)-4-oxobutanoate] | 8.11 ± 1.34 | 16.5 ± 0.82 | 11.6 ± 0.57 | 31.38 ± 0.23 | 5.24 ± 0.37 | 1.32 ± 0.01 | 16.5 ± 1.76 | 16.7 ± 0.59 | 6.38 ± 0.97 | 7.82 ± 2.34 | 34.8 ± 0.44 | 19.6 ± 1.21 | 48.9 to 50.5 | 3.35 ± 0.01 | 18.8 ± 0.46
CC[C@]1(O)C(=O)OCc2c1cc1n(c2=O)Cc2cc3cc(OC(=O)/C=C/C(=O)N4CCN(c5ccc(Nc6ncc7c(C)c(C(C)=O)c(=O)n(C8CCCC8)c7n6)nc5)CC4)ccc3nc2-1 [HP-3, (R)-4-ethyl-4-hydroxy-3,14-dioxo-3,4,12,14-tetrahydro-1H-pyrano[3’,4’:6,7] indolizino[1,2-b]quinolin-9-yl(E)-4-(4-(6-((6-acetyl-8-cyclopentyl-5-methyl-7-oxo-7,8-dihydropyrido[2,3-d]pyrimidin-2-yl)amino)pyridin-3-yl)piperazin-1-yl)-4-oxobut-2-enoate] | 6.84 ± 0.91 | 27.3 ± 1.43 | 15.4 ± 0.42 | 37.3 ± 1.66 | 5.52 ± 0.11 | 2.08 ± 0.25 | 33.7 ± 1.03 | 21.4 ± 1.27 | 8.31 ± 0.52 | 14.9 ± 0.73 | 39.98 ± 0.16 | 23.2 ± 0.49 | 45.7 to 47.3 | 4.35 ± 0.13 | 17.1 ± 0.28
CC(=O)c1c(C)c2cnc(Nc3ccc(N4CCNCC4)cn3)nc2n(C2CCCC2)c1=O [Palbociclib] | 7.55 ± 1.49 | 11.7 ± 1.75 | 16.8 ± 0.39 | 39.7 ± 0.57 | 6.16 ± 0.19 | 2.95 ± 0.11 | 32.1 ± 1.93 | 8.73 ± 0.33 | 5.15 ± 1.04 | 21.35 ± 0.13 | 38.8 ± 0.59 | 31.6 ± 1.21 | – | 5.09 ± 0.24 | 35.9 ± 0.41
